Results on nine molecules are retold here after PubChem BioAssay AID190 (DTP/NCI, 2004).

Where “and” joins values, the source holds several entries; their conditions need not be identical. Identical values can stand only once. Toxic doses and inconclusive results are not listed.

For this test, the system named is AKR/Lw mice, AKR lymphoma ip, median survival T/C. As to the kind of experiment: NCI In Vivo Anticancer Drug Screen. Data for tumor model Lymphoma AKR (Transplanted) (intraperitoneal) in AKR/Lw mice. As to conditions: endpoint: median survival time, higher = longer survival. As for the experimental part: The antitumor activity of compounds was measured in mice bearing transplantable tumors. Survival or tumor size were measured and the results are expressed as the measurement made in the treated group (T) divided by the measurement made in the vehicle treated control group (C). The tumor model used in this assay is Lymphoma AKR (Transplanted) (intraperitoneal) in AKR/Lw mice

The mark [1] stands for this setting: dose: 200.0 mg/kg/injection, schedule: Q01DX001 (ip), vehicle: Klucel (hydroxypropylcellulose) (HPC).
Where [2] appears, read: dose: 100.0 mg/kg/injection, schedule: Q01DX001 (ip), vehicle: saline.
The mark [3] stands for this setting: dose: 400.0 mg/kg/injection, schedule: Q01DX001 (ip), vehicle: saline.
Setting [4] is: dose: 100.0 mg/kg/injection, schedule: Q01DX001 (ip), vehicle: Klucel (hydroxypropylcellulose) (HPC).
Setting [5] is: dose: 400.0 mg/kg/injection, schedule: Q01DX001 (ip), vehicle: Klucel (hydroxypropylcellulose) (HPC).

`CC(=O)c1ccc2ccccc2c1O`: the T/C was 102 % of control (dose: 25.0 mg/kg/injection, schedule: Q01DX001 (ip), vehicle: Klucel (hydroxypropylcellulose) (HPC)); 88 % of control (dose: 50.0 mg/kg/injection, schedule: Q01DX001 (ip), vehicle: Klucel (hydroxypropylcellulose) (HPC)); 88 % of control under setting [1]; 104 % of control (dose: 200.0 mg/kg/injection, schedule: Q01DX001 (ip), vehicle: other); 111 % of control (dose: 400.0 mg/kg/injection, schedule: Q01DX001 (ip), vehicle: other).

As to `CCOC(=O)c1ccc(NCC(C)(C)[N+](=O)[O-])cc1`, the T/C by setting is: under setting [2], 88 % of control; under setting [3], 88 % of control.

Turning to `COc1cccc(CNc2cccc(Cl)c2Cl)c1OC`, the T/C was 93 % of control and 100 % of control (dose: 200.0 mg/kg/injection, schedule: Q01DX001 (ip), vehicle: saline with Tween-80); 93 % of control and 113 % of control (dose: 400.0 mg/kg/injection, schedule: Q01DX001 (ip), vehicle: saline with Tween-80).

`C#CCn1cnc2c(Cl)ncnc21`: the T/C was 97 % of control under setting [4], 104 % of control under setting [1] and 107 % of control under setting [5].

As for `CN(Cc1cnc2nc(N)nc(N)c2n1)c1ccc(C(=O)N[C@@H](CCC(=O)O)C(=O)O)cc1`, the T/C (dose: 0.15 mg/kg/injection, schedule: Q04DX003 (ip), vehicle: saline) is 100 % of control; the T/C (dose: 0.25 mg/kg/injection, schedule: Q01DX001 (ip), vehicle: saline) is 106 % of control; the T/C (dose: 0.25 mg/kg/injection, schedule: Q01DX009 (ip), vehicle: saline) was 112 % of control; the T/C (dose: 0.25 mg/kg/injection, schedule: Q01DX015 (ip), vehicle: saline) is 114 % of control and 116 % of control; the T/C (dose: 0.3 mg/kg/injection, schedule: Q04DX003 (ip), vehicle: saline) was 111 % of control; the T/C (dose: 0.5 mg/kg/injection, schedule: Q01DX001 (ip), vehicle: saline) is 109 % of control and 117 % of control. For the same molecule, the T/C (dose: 0.5 mg/kg/injection, schedule: Q04DX008 (ip), vehicle: saline) was 116 % of control; the T/C (dose: 0.6 mg/kg/injection, schedule: Q04DX003 (ip), vehicle: saline) was 98 % of control; the T/C (dose: 0.75 mg/kg/injection, schedule: Q01DX009 (ip), vehicle: saline) was 112 % of control; the T/C (dose: 0.75 mg/kg/injection, schedule: Q04DX003 (ip), vehicle: saline) is 87 % of control and 93 % of control and 111 % of control; the T/C (dose: 1.0 mg/kg/injection, schedule: Q01DX001 (ip), vehicle: saline) is 109 % of control and 115 % of control; the T/C (dose: 1.2 mg/kg/injection, schedule: Q01DX009 (ip), vehicle: saline) was 91 % of control. For the same molecule, the T/C is, setting by setting: (dose: 1.5 mg/kg/injection, schedule: Q01DX001 (ip), vehicle: saline) 89 % of control and 102 % of control; (dose: 1.5 mg/kg/injection, schedule: Q01DX015 (ip), vehicle: saline) 197 % of control; (dose: 2.0 mg/kg/injection, schedule: Q01DX001 (ip), vehicle: saline) 106 % of control and 115 % of control; (dose: 2.0 mg/kg/injection, schedule: Q04DX003 (ip), vehicle: saline) 95 % of control; (dose: 2.5 mg/kg/injection, schedule: Q01DX009 (ip), vehicle: saline) 87 % of control and 91 % of control; (dose: 3.0 mg/kg/injection, schedule: Q01DX001 (ip), vehicle: saline) 100 % of control and 114 % of control and 116 % of control. The T/C is 116 % of control (dose: 4.0 mg/kg/injection, schedule: Q01DX001 (ip), vehicle: saline); 94 % of control (dose: 4.0 mg/kg/injection, schedule: Q01DX009 (ip), vehicle: saline); 109 % of control (dose: 4.0 mg/kg/injection, schedule: Q04DX003 (ip), vehicle: saline); 113 % of control (dose: 4.0 mg/kg/injection, schedule: Q04DX008 (ip), vehicle: saline); 114 % of control (dose: 5.0 mg/kg/injection, schedule: Q01DX001 (ip), vehicle: saline); 88 % of control (dose: 5.0 mg/kg/injection, schedule: Q01DX009 (ip), vehicle: saline). In addition, the T/C was 102 % of control and 104 % of control (dose: 10.0 mg/kg/injection, schedule: Q01DX001 (ip), vehicle: saline); 123 % of control (dose: 11.0 mg/kg/injection, schedule: Q04DX008 (ip), vehicle: saline); 107 % of control and 111 % of control (dose: 12.0 mg/kg/injection, schedule: Q01DX001 (ip), vehicle: saline); 93 % of control and 100 % of control (dose: 12.0 mg/kg/injection, schedule: Q04DX003 (ip), vehicle: saline); 93 % of control (dose: 16.0 mg/kg/injection, schedule: Q04DX004 (ip), vehicle: saline); 102 % of control (dose: 20.0 mg/kg/injection, schedule: Q01DX001 (ip), vehicle: saline). Further, the T/C is, setting by setting: (dose: 24.0 mg/kg/injection, schedule: Q04DX003 (ip), vehicle: saline) 94 % of control; (dose: 24.0 mg/kg/injection, schedule: Q04DX004 (ip), vehicle: saline) 115 % of control; (dose: 40.0 mg/kg/injection, schedule: Q01DX001 (ip), vehicle: saline) 108 % of control.

For `c1ccc2c(c1)CNC2`, the T/C under setting [2] was 97 % of control; the T/C (dose: 200.0 mg/kg/injection, schedule: Q01DX001 (ip), vehicle: saline) was 123 % of control; the T/C under setting [3] is 111 % of control.

`Cc1ccc(S(=O)(=O)Nc2ccccc2-c2nc3c(Cl)ccc(Cl)c3c(=O)o2)cc1`: the T/C under setting [4] was 96 % of control; the T/C (dose: 100.0 mg/kg/injection, schedule: Q04DX003 (ip), vehicle: Klucel (hydroxypropylcellulose) (HPC)) was 90 % of control; the T/C under setting [1] was 103 % of control; the T/C (dose: 200.0 mg/kg/injection, schedule: Q04DX003 (ip), vehicle: Klucel (hydroxypropylcellulose) (HPC)) was 90 % of control; the T/C under setting [5] was 93 % of control.

Turning to `Cc1c(N)nc([C@H](CC(N)=O)NC[C@H](N)C(N)=O)nc1C(=O)N[C@H](C(=O)N[C@H](C)[C@@H](O)[C@H](C)C(=O)N[C@H](C(=O)NCCc1nc(-c2nc(C(=O)NCCC[S+](C)C)cs2)cs1)[C@@H](C)O)C(OC1OC(CO)C(O)C(O)C1OC1OC(CO)C(O)C(OC(N)=O)C1O)c1cnc[nH]1` (stereo partly specified), the T/C was 120 % of control (dose: 0.05 mg/kg/injection, schedule: Q01DX010 (ip), vehicle: saline); 103 % of control (dose: 0.1 mg/kg/injection, schedule: Q01DX010 (ip), vehicle: saline); 116 % of control (dose: 0.25 mg/kg/injection, schedule: Q01DX010 (ip), vehicle: saline); 113 % of control (dose: 0.4 mg/kg/injection, schedule: Q01DX010 (ip), vehicle: saline); 106 % of control (dose: 0.5 mg/kg/injection, schedule: Q01DX010 (ip), vehicle: saline); 106 % of control (dose: 0.75 mg/kg/injection, schedule: Q01DX010 (ip), vehicle: saline). The T/C runs as follows: (dose: 1.0 mg/kg/injection, schedule: Q01DX010 (ip), vehicle: saline) 100 % of control; (dose: 1.5 mg/kg/injection, schedule: Q01DX010 (ip), vehicle: saline) 93 % of control; (dose: 1.9 mg/kg/injection, schedule: Q01DX010 (ip), vehicle: saline) 95 % of control; (dose: 2.0 mg/kg/injection, schedule: Q01DX010 (ip), vehicle: saline) 100 % of control.

On to `O=c1cc(-c2ccccc2)nc(Nc2nc3ccc([N+](=O)[O-])cc3[nH]2)[nH]1`, for which the T/C by setting is: under setting [4], 96 % of control; under setting [1], 110 % of control; under setting [5], 96 % of control.
